pIC50: −log10 of the molar value. Starred links: 1 amine or outer side, 2 acyl side, 3 side chain; linkers in the order of their positions; H or OH if unused. Positions of bridges follow the written chain, without caps; N, C: chain ends. Non-standard residues stand in square brackets, D forms with d. Residues, ends and D or L forms follow the SMILES beside them. X48 = O=C([C@H](CCNCc1ccccc1O[C@@H]1O[C@H](CO)[C@@H](O)[C@H](O)[C@H]1O)N[*:1])[*:2]; X47 = O=C([C@H](CNCc1ccccc1O[C@@H]1O[C@H](CO)[C@@H](O)[C@H](O)[C@H]1O)N[*:1])[*:2]; X46 = CCn1c2ccccc2c2cc(CNCC[C@H](N[*:1])C(=O)[*:2])ccc21; Trp(1-CH2COOH) = N[C@@H](Cc1cn(CC(=O)O)c2ccccc12)C(=O)O; X45 = CCn1c2ccccc2c2cc(CNC[C@H](N[*:1])C(=O)[*:2])ccc21; X65 = O=C([C@H](CCNCc1ccccc1-c1ccc(Cl)cc1)N[*:1])[*:2]; X57 = COc1cc2cccc(OC)c2cc1CNCC[C@H](N[*:1])C(=O)[*:2]; X64 = O=C([C@H](CNCc1ccccc1-c1ccc(Cl)cc1)N[*:1])[*:2]; X10 = O=C([C@H](CNCc1c2ccccc2nc2ccccc12)N[*:1])[*:2]; X12 = O=C([C@H](CNCc1cccc2ccc3ccccc3c12)N[*:1])[*:2]; X36 = COc1cc2cccc(OC)c2cc1CNC[C@H](N[*:1])C(=O)[*:2]; X14 = O=C([C@H](CCNCc1cccc2[nH]ccc12)N[*:1])[*:2]; X13 = O=C([C@H](CNCc1cccc2[nH]ccc12)N[*:1])[*:2]; X19 = O=C([C@H](CCNCc1cccc2nccnc12)N[*:1])[*:2]; X18 = O=C([C@H](CNCc1cccc2nccnc12)N[*:1])[*:2]; X23 = O=C([C@H](CCNCc1cc2ccccc2o1)N[*:1])[*:2]; X22 = O=C([C@H](CNCc1cc2ccccc2o1)N[*:1])[*:2]; Hyp = O=C(O)[C@@H]1C[C@@H](O)CN1; NMeNle = CCCC[C@H](NC)C(=O)O; NMeA = CN[C@@H](C)C(=O)O; Dab = NCC[C@H](N)C(=O)O

The target in this experiment is T1, PD-1/PD-L1 (Homo sapiens, UniProt Q9NZQ7).
T1 construct: TVMV protease site (linker) (C); made in house; host or cells: HEK293T cells
T1 sequence (Q9NZQ7 18-239): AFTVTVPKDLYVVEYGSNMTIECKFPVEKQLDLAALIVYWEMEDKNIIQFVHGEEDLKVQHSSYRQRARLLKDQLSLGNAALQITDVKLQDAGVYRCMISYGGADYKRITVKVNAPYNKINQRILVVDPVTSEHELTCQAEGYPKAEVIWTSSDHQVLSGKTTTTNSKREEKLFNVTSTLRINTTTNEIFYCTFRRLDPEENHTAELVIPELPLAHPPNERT
As to the kind of experiment: PD-1/PD-L1 Homogenous Time-Resolved Fluorescence (HTRF) binding assay. The conditions noted are these: PD-L1-His 10 nM, PD-1-Ig 20 nM. The text has this: The ability of the compounds of formula (I) to bind to PD-L1 was investigated using a PD-1/PD-L1 Homogenous Time-Resolved Fluorescence (HTRF) binding assay.
The interaction of PD-1 and PD-L1 can be assessed using soluble, purified preparations of the extracellular domains of the two proteins. The PD-1 and PD-L1 protein extracellular domains were expressed as fusion proteins with detection tags, for PD-1, the tag was the Fc portion of Immunoglobulin (PD-1-Ig) and for PD-L1 it was the 6 histidine motif (PD-L1-His). All binding studies were performed in an HTRF assay buffer consisting of dPBS supplemented with 0.1% […] bovine serum albumin and 0.05% (v/v) Tween-20. For the h/PD-L1-His binding assay, inhibitors were pre-incubated with PD-L1-His (10 nM final) for 15 m in 4 µl of assay buffer, followed by addition of PD-1-Ig (20 nM final) in 1 µl of assay buffer and further incubation for 15 m. HTRF detection was achieved using europium crypate-labeled anti-Ig (1 nM final) and allophycocyanin (APC) labeled anti-His (20 nM final). Antibodies were diluted in HTRF detection buffer and 5 µl was dispensed on top of the binding reaction. The reaction mixture was allowed to equilibrate for 30 minutes and the resulting signal (665 nm/620 nm ratio) was obtained using an EnVision fluorometer. Additional binding assays were established between the human proteins PD-1-Ig/PD-L2-His (20 & 5 nM, respectively) and CD80-His/PD-L1-Ig (100 & 10 nM, respectively).
Recombinant Proteins: Human PD-1 (25-167) with a C-terminal human Fc domain of immunoglobulin G (Ig) epitope tag [hPD-1 (25-167)-3S-IG] and human PD-L1 (18-239) with a C-terminal His epitope tag [hPD-L1(18-239)-TVMV-His] were expressed in HEK293T cells and purified sequentially by ProteinA affinity chromatography and size exclusion chromatography. Human PD-L2-His and CD80-His was obtained through commercial sources.
Table 1 lists the IC50 values for representative examples of this disclosure measured in the PD-1/PD-L1 Homogenous Time-Resolved Fluorescence (HTRF) binding assay.
(Time-resolved FRET reads energy transfer from a long-lived donor to a nearby acceptor.)
With `CCCC[C@H]1C(=O)N(C)[C@@H](CCCC)C(=O)N[C@@H](CC(C)C)C(=O)N[C@H](C(=O)NCC(N)=O)CSCC(=O)N[C@@H](Cc2ccc(O)cc2)C(=O)N(C)[C@@H](C)C(=O)N[C@@H](CC(N)=O)C(=O)N2CCC[C@H]2C(=O)N[C@@H](CNCc2ccccc2-c2ccc(Cl)cc2)C(=O)N[C@@H](CC(C)C)C(=O)N2C[C@H](O)C[C@H]2C(=O)N[C@@H](Cc2c[nH]c3ccccc23)C(=O)N[C@@H](CCNCc2ccccc2-c2ccc(Cl)cc2)C(=O)N[C@@H](Cc2cn(CC(=O)O)c3ccccc23)C(=O)N1C` [Example 1001] ({CH2CO}-Y[NMeA]NP[X64]L[Hyp]W[X65][Trp(1-CH2COOH)][NMeNle][NMeNle]LCG-NH2; thioether N-14), the pIC50 (as a rule, −log10 of the IC50, conventionally taken in molar units) was 7.85. `CCCC[C@H]1C(=O)N(C)[C@@H](CCCC)C(=O)N[C@@H](CC(C)C)C(=O)N[C@H](C(=O)NCC(N)=O)CSCC(=O)N[C@@H](Cc2ccc(O)cc2)C(=O)N(C)[C@@H](C)C(=O)N[C@@H](CC(N)=O)C(=O)N2CCC[C@H]2C(=O)N[C@@H](CNCc2cccc3nccnc23)C(=O)N[C@@H](CC(C)C)C(=O)N2C[C@H](O)C[C@H]2C(=O)N[C@@H](Cc2c[nH]c3ccccc23)C(=O)N[C@@H](CCNCc2cccc3nccnc23)C(=O)N[C@@H](Cc2cn(CC(=O)O)c3ccccc23)C(=O)N1C` [Example 1002] ({CH2CO}-Y[NMeA]NP[X18]L[Hyp]W[X19][Trp(1-CH2COOH)][NMeNle][NMeNle]LCG-NH2; thioether N-14): the negative-log IC50 (pIC50) is 8.21. Under `CCCC[C@H]1C(=O)N(C)[C@@H](CCCC)C(=O)N[C@@H](CC(C)C)C(=O)N[C@H](C(=O)NCC(N)=O)CSCC(=O)N[C@@H](Cc2ccc(O)cc2)C(=O)N(C)[C@@H](C)C(=O)N[C@@H](CC(N)=O)C(=O)N2CCC[C@H]2C(=O)N[C@@H](CNCc2cccc3nccnc23)C(=O)N[C@@H](CC(C)C)C(=O)N2C[C@H](O)C[C@H]2C(=O)N[C@@H](Cc2c[nH]c3ccccc23)C(=O)N[C@@H](CCN)C(=O)N[C@@H](Cc2cn(CC(=O)O)c3ccccc23)C(=O)N1C` [Example 1004] ({CH2CO}-Y[NMeA]NP[X18]L[Hyp]W[Dab][Trp(1-CH2COOH)][NMeNle][NMeNle]LCG-NH2; thioether N-14) stands 8.37; under `CCCC[C@H]1C(=O)N(C)[C@@H](CCCC)C(=O)N[C@@H](CC(C)C)C(=O)N[C@H](C(=O)NCC(N)=O)CSCC(=O)N[C@@H](Cc2ccc(O)cc2)C(=O)N(C)[C@@H](C)C(=O)N[C@@H](CC(N)=O)C(=O)N2CCC[C@H]2C(=O)N[C@@H](CNCc2cccc3ccc4ccccc4c23)C(=O)N[C@@H](CC(C)C)C(=O)N2C[C@H](O)C[C@H]2C(=O)N[C@@H](Cc2c[nH]c3ccccc23)C(=O)N[C@@H](CCN)C(=O)N[C@@H](Cc2cn(CC(=O)O)c3ccccc23)C(=O)N1C` [Example 1005] ({CH2CO}-Y[NMeA]NP[X12]L[Hyp]W[Dab][Trp(1-CH2COOH)][NMeNle][NMeNle]LCG-NH2; thioether N-14), 6.92. Consider `CCCC[C@H]1C(=O)N(C)[C@@H](CCCC)C(=O)N[C@@H](CC(C)C)C(=O)N[C@H](C(=O)NCC(N)=O)CSCC(=O)N[C@@H](Cc2ccc(O)cc2)C(=O)N(C)[C@@H](C)C(=O)N[C@@H](CC(N)=O)C(=O)N2CCC[C@H]2C(=O)N[C@@H](CNCc2ccccc2O[C@@H]2O[C@H](CO)[C@@H](O)[C@H](O)[C@H]2O)C(=O)N[C@@H](CC(C)C)C(=O)N2C[C@H](O)C[C@H]2C(=O)N[C@@H](Cc2c[nH]c3ccccc23)C(=O)N[C@@H](CCNCc2ccccc2O[C@@H]2O[C@H](CO)[C@@H](O)[C@H](O)[C@H]2O)C(=O)N[C@@H](Cc2cn(CC(=O)O)c3ccccc23)C(=O)N1C` [Example 1006] ({CH2CO}-Y[NMeA]NP[X47]L[Hyp]W[X48][Trp(1-CH2COOH)][NMeNle][NMeNle]LCG-NH2; thioether N-14), for which the pIC50 is 7.49. In turn, `CCCC[C@H]1C(=O)N(C)[C@@H](CCCC)C(=O)N[C@@H](CC(C)C)C(=O)N[C@H](C(=O)NCC(N)=O)CSCC(=O)N[C@@H](Cc2ccc(O)cc2)C(=O)N(C)[C@@H](C)C(=O)N[C@@H](CC(N)=O)C(=O)N2CCC[C@H]2C(=O)N[C@@H](CNCc2ccccc2O[C@@H]2O[C@H](CO)[C@@H](O)[C@H](O)[C@H]2O)C(=O)N[C@@H](CC(C)C)C(=O)N2C[C@H](O)C[C@H]2C(=O)N[C@@H](Cc2c[nH]c3ccccc23)C(=O)N[C@@H](CCN)C(=O)N[C@@H](Cc2cn(CC(=O)O)c3ccccc23)C(=O)N1C` [Example 1007] ({CH2CO}-Y[NMeA]NP[X47]L[Hyp]W[Dab][Trp(1-CH2COOH)][NMeNle][NMeNle]LCG-NH2; thioether N-14) had a pIC50 of 7.92. Take `CCCC[C@H]1C(=O)N(C)[C@@H](CCCC)C(=O)N[C@@H](CC(C)C)C(=O)N[C@H](C(=O)NCC(N)=O)CSCC(=O)N[C@@H](Cc2ccc(O)cc2)C(=O)N(C)[C@@H](C)C(=O)N[C@@H](CC(N)=O)C(=O)N2CCC[C@H]2C(=O)N[C@@H](CNCc2cccc3[nH]ccc23)C(=O)N[C@@H](CC(C)C)C(=O)N2C[C@H](O)C[C@H]2C(=O)N[C@@H](Cc2c[nH]c3ccccc23)C(=O)N[C@@H](CCNCc2cccc3[nH]ccc23)C(=O)N[C@@H](Cc2cn(CC(=O)O)c3ccccc23)C(=O)N1C` [Example 1008] ({CH2CO}-Y[NMeA]NP[X13]L[Hyp]W[X14][Trp(1-CH2COOH)][NMeNle][NMeNle]LCG-NH2; thioether N-14): the pIC50 was 8.31.

In turn, `CCCC[C@H]1C(=O)N(C)[C@@H](CCCC)C(=O)N[C@@H](CC(C)C)C(=O)N[C@H](C(=O)NCC(N)=O)CSCC(=O)N[C@@H](Cc2ccc(O)cc2)C(=O)N(C)[C@@H](C)C(=O)N[C@@H](CC(N)=O)C(=O)N2CCC[C@H]2C(=O)N[C@@H](CNCc2ccc3c(c2)c2ccccc2n3CC)C(=O)N[C@@H](CC(C)C)C(=O)N2C[C@H](O)C[C@H]2C(=O)N[C@@H](Cc2c[nH]c3ccccc23)C(=O)N[C@@H](CCNCc2ccc3c(c2)c2ccccc2n3CC)C(=O)N[C@@H](Cc2cn(CC(=O)O)c3ccccc23)C(=O)N1C` [Example 1009] ({CH2CO}-Y[NMeA]NP[X45]L[Hyp]W[X46][Trp(1-CH2COOH)][NMeNle][NMeNle]LCG-NH2; thioether N-14) gave a pIC50 of 8.01. The result for `CCCC[C@H]1C(=O)N(C)[C@@H](CCCC)C(=O)N[C@@H](CC(C)C)C(=O)N[C@H](C(=O)NCC(N)=O)CSCC(=O)N[C@@H](Cc2ccc(O)cc2)C(=O)N(C)[C@@H](C)C(=O)N[C@@H](CC(N)=O)C(=O)N2CCC[C@H]2C(=O)N[C@@H](CNCc2cc3ccccc3o2)C(=O)N[C@@H](CC(C)C)C(=O)N2C[C@H](O)C[C@H]2C(=O)N[C@@H](Cc2c[nH]c3ccccc23)C(=O)N[C@@H](CCNCc2cc3ccccc3o2)C(=O)N[C@@H](Cc2cn(CC(=O)O)c3ccccc23)C(=O)N1C` [Example 1010] ({CH2CO}-Y[NMeA]NP[X22]L[Hyp]W[X23][Trp(1-CH2COOH)][NMeNle][NMeNle]LCG-NH2; thioether N-14) reads 7.92. On to `CCCC[C@H]1C(=O)N(C)[C@@H](CCCC)C(=O)N[C@@H](CC(C)C)C(=O)N[C@H](C(=O)NCC(N)=O)CSCC(=O)N[C@@H](Cc2ccc(O)cc2)C(=O)N(C)[C@@H](C)C(=O)N[C@@H](CC(N)=O)C(=O)N2CCC[C@H]2C(=O)N[C@@H](CNCc2cc3c(OC)cccc3cc2OC)C(=O)N[C@@H](CC(C)C)C(=O)N2C[C@H](O)C[C@H]2C(=O)N[C@@H](Cc2c[nH]c3ccccc23)C(=O)N[C@@H](CCNCc2cc3c(OC)cccc3cc2OC)C(=O)N[C@@H](Cc2cn(CC(=O)O)c3ccccc23)C(=O)N1C` [Example 1011] ({CH2CO}-Y[NMeA]NP[X36]L[Hyp]W[X57][Trp(1-CH2COOH)][NMeNle][NMeNle]LCG-NH2; thioether N-14), for which the pIC50 was 8.15.

For `CCCC[C@H]1C(=O)N(C)[C@@H](CCCC)C(=O)N[C@@H](CC(C)C)C(=O)N[C@H](C(=O)NCC(N)=O)CSCC(=O)N[C@@H](Cc2ccc(O)cc2)C(=O)N(C)[C@@H](C)C(=O)N[C@@H](CC(N)=O)C(=O)N2CCC[C@H]2C(=O)N[C@@H](CNCc2c3ccccc3nc3ccccc23)C(=O)N[C@@H](CC(C)C)C(=O)N2C[C@H](O)C[C@H]2C(=O)N[C@@H](Cc2c[nH]c3ccccc23)C(=O)N[C@@H](CCN)C(=O)N[C@@H](Cc2cn(CC(=O)O)c3ccccc23)C(=O)N1C` [Example 1013] ({CH2CO}-Y[NMeA]NP[X10]L[Hyp]W[Dab][Trp(1-CH2COOH)][NMeNle][NMeNle]LCG-NH2; thioether N-14), the pIC50 is 8.34.

The values above are taken from patent publication US20230242585A1, “IMMUNOMODULATORS” (Bristol-Myers Squibb Company, priority 2020, published 2023).
